In ChEMBL document CHEMBL1134195, “Synthesis of analogues of the O-beta-D-ribofuranosyl nucleoside moiety of liposidomycins. Part 2: role of the hydroxyl groups upon the inhibition of MraY” (Bioorg Med Chem Lett, 2001):

Test: Inhibitory activity against translocase (Mra Y) obtained from bacteria.

Structure (SMILES) | IC50 [µM]
NC[C@H]1O[C@@H](OC[C@H]2O[C@@H](n3ccc(=O)[nH]c3=O)C[C@@H]2O)[C@H](O)[C@@H]1O | 80
NC[C@H]1O[C@@H](OC[C@@H]2CC[C@H](n3ccc(=O)[nH]c3=O)O2)[C@H](O)[C@@H]1O | 120
NC[C@H]1O[C@@H](OC[C@@H]2C[C@@H](O)[C@H](n3ccc(=O)[nH]c3=O)O2)[C@H](O)[C@@H]1O | 10
NC[C@H]1O[C@@H](OC[C@H]2O[C@@H](n3ccc(=O)[nH]c3=O)[C@H](O)[C@@H]2O)C[C@@H]1O | 115
NC[C@H]1O[C@@H](OC[C@H]2O[C@@H](n3ccc(=O)[nH]c3=O)[C@H](O)[C@@H]2O)[C@H](O)[C@@H]1O | 50
NC[C@H]1O[C@@H](O[C@@H](CO)[C@H]2O[C@@H](n3ccc(=O)[nH]c3=O)[C@H](O)[C@@H]2O)[C@H](O)[C@@H]1O | 5
NC[C@@H]1C[C@@H](O)[C@H](OC[C@H]2O[C@@H](n3ccc(=O)[nH]c3=O)[C@H](O)[C@@H]2O)O1 | > 1000
